From the Deep4Chem optical property database
“And” between values parts separate entries of the source, which are not always exact repeats. Identical values can stand only once. Blank lines part the entries; values can stand above or below the compound they belong to.

Assay: photoluminescence quantum yield (fraction); solvent given as SMILES

SMILES: Cn1cc(-c2nc3ccccc3nc2/C=C/N2CCCC2)c2ccccc21
- photoluminescence quantum yield (in C1CCCCC1): 0.126
- photoluminescence quantum yield (in C1CCOC1): 0.444
- photoluminescence quantum yield (in CC#N): 0.43
- photoluminescence quantum yield (in CC(C)=O): 0.456
- photoluminescence quantum yield (in CCO): 0.048
- photoluminescence quantum yield (in CO): 0.012
- photoluminescence quantum yield (in CS(C)=O): 0.496
- photoluminescence quantum yield (in Cc1ccccc1): 0.375
- photoluminescence quantum yield (in ClCCl): 0.579

SMILES: c1cc2cc(c1)c1cccc(c1)c1cccc(c1)c1cccc(c1)c1cccc(c1)c1cccc2c1
- photoluminescence quantum yield (in ClC(Cl)Cl): 0.06

SMILES: CC1=[N+]2C(=C(c3c4ccccc4cc4ccccc34)c3ccc(C)n3[B-]2(F)F)C=C1
- photoluminescence quantum yield (in C1CCOC1): 0.002
- photoluminescence quantum yield (in CC#N): 0.002
- photoluminescence quantum yield (in CCO): 0.005
- photoluminescence quantum yield (in CN(C)C=O): 0.003
- photoluminescence quantum yield (in CO): 0.001
- photoluminescence quantum yield (in CS(C)=O): 0.002
- photoluminescence quantum yield (in Cc1ccccc1): 0.29
- photoluminescence quantum yield (in ClC(Cl)Cl): 0.01 and 0.004

SMILES: CC[B-]1(CC)c2cccc3cc4ccccc4c(c23)-c2cccc(C)[n+]21
- photoluminescence quantum yield (in ClCCl): 0.202

SMILES: N#CC(C#N)=Cc1ccc(-c2ccc(N(c3ccccc3)c3ccccc3)cc2)o1
- photoluminescence quantum yield (in ClC(Cl)Cl): 0.19

SMILES: O=[N+]([O-])c1ccc(/C=C/c2c[nH]c3ccccc23)cc1
- photoluminescence quantum yield (in CC#N): 0.009
- photoluminescence quantum yield (in CCCCCCC): 0.051
- photoluminescence quantum yield (in CO): 0.003
- photoluminescence quantum yield (in O): 0.024

SMILES: CC(C)[Si](C#Cc1c2nc3c(nc2c(C#C[Si](C(C)C)(C(C)C)C(C)C)c2nc4ccccc4nc12)C1c2ccccc2C3c2ccccc21)(C(C)C)C(C)C
- photoluminescence quantum yield (in CCCCCC): 0.21

SMILES: CC1(C)C(/C=C/C2=C(Cl)C(=C/C=C3/N(Cc4ccc(F)cc4)c4ccccc4C3(C)C)/CCC2)=[N+](Cc2ccc(F)cc2)c2ccccc21
- photoluminescence quantum yield (in CCO): 0.148

SMILES: Cc1cccc(-c2cnc3ccc4ccccc4n23)c1
- photoluminescence quantum yield (in ClCCl): 0.55

SMILES: c1ccc(-c2nnc(-c3cc(-c4nnc(-c5ccccc5)o4)c(-n4c5ccccc5c5ccccc54)cc3-n3c4ccccc4c4ccccc43)o2)cc1
- photoluminescence quantum yield (in Cc1ccccc1): 0.101
- photoluminescence quantum yield (in O=P(c1ccccc1)(c1ccccc1)c1ccccc1Oc1ccccc1P(=O)(c1ccccc1)c1ccccc1): 0.581

SMILES: c1ccc(/C(=C(\c2ccccc2)c2cc(-c3ccccc3)ccc2-c2ccc(-c3ccccc3)cc2)c2cc(-c3ccccc3)ccc2-c2ccc(-c3ccccc3)cc2)cc1
- photoluminescence quantum yield (in C1CCOC1): 0.38

SMILES: CCC1=C(C)C2=C(C)c3c(I)c(I)cn3[B-](F)(F)[N+]2=C1C
- photoluminescence quantum yield (in C1CCCCC1): 0.05
- photoluminescence quantum yield (in CC(C)=O): 0.024
- photoluminescence quantum yield (in CCO): 0.021
- photoluminescence quantum yield (in CCOC(C)=O): 0.031
- photoluminescence quantum yield (in CO): 0.02
- photoluminescence quantum yield (in OCC(F)(F)F): 0.019

SMILES: CC1(C)c2cccc(-c3nc(-c4ccccc4)nc(-c4ccccc4)n3)c2Oc2c(-n3c4ccccc4c4ccccc43)cccc21
- photoluminescence quantum yield (in Cc1ccccc1): 0.059

SMILES: CCCCCCc1ccc2c3c(ccc2c1)O[B-](F)(F)[N+](c1cc([N+]2=Cc4c(ccc5cc(CCCCCC)ccc45)O[B-]2(F)F)cc([N+]2=Cc4c(ccc5cc(CCCCCC)ccc45)O[B-]2(F)F)c1)=C3
- photoluminescence quantum yield (in C1CCOC1): 0.26
- photoluminescence quantum yield (in CC#N): 0.18
- photoluminescence quantum yield (in Cc1ccccc1): 0.48
- photoluminescence quantum yield (in ClCCl): 0.44

SMILES: c1ccc(-c2nc(-c3ccccc3)c(N(c3ccccc3)c3ccccc3)[se]2)cc1
- photoluminescence quantum yield (in ClC(Cl)Cl): 0.068

SMILES: CCn1c(-c2ccc(-c3ccc4c(c3)C(c3ccccc3)(c3ccccc3)c3ccccc3-4)cc2)c(-c2ccc3ccccc3c2)c(-c2ccc3ccccc3c2)c1-c1ccc(-c2ccc3c(c2)C(c2ccccc2)(c2ccccc2)c2ccccc2-3)cc1
- photoluminescence quantum yield (in CCOC(C)=O): 0.99

SMILES: COc1ccc(C2=C3C(/C=C/c4cc(OC)c(OC)c(OC)c4)=C(C=O)C(C)=[N+]3[B-](F)(F)n3c(/C=C/c4cc(OC)c(OC)c(OC)c4)c(C=O)c(C=Cc4cc(OC)c(OC)c(OC)c4)c32)cc1
- photoluminescence quantum yield (in ClCCl): 0.1

SMILES: Cc1cc(C)c(C2=C3C=C(/C=C/C(=O)OC(C)(C)C)C=[N+]3[B-](F)(F)n3c2ccc3N2CCOCC2)c(C)c1
- photoluminescence quantum yield (in CC#N): 0.13
- photoluminescence quantum yield (in CCCCCC): 0.88
- photoluminescence quantum yield (in CN(C)C=O): 0.15
- photoluminescence quantum yield (in CO): 0.21
- photoluminescence quantum yield (in Cc1ccccc1): 0.64
- photoluminescence quantum yield (in ClCCl): 0.49

SMILES: COc1cccc2cc(-c3ccc([N+](=O)[O-])cc3)c(=O)oc12
- photoluminescence quantum yield (in C1CCOC1): 0.005
- photoluminescence quantum yield (in CC#N): 0.0019
- photoluminescence quantum yield (in CS(C)=O): 0.0015
- photoluminescence quantum yield (in ClC(Cl)Cl): 0.014

SMILES: COC(=O)CCC1=CC(C#Cc2ccsc2)=[N+]2C1=Cc1c(CCC(=O)OC)cc(C#Cc3ccsc3)n1[B-]2(F)F
- photoluminescence quantum yield (in ClCCl): 0.39

SMILES: Oc1ccccc1-c1nc2c3cccnc3c3ncccc3c2n1-c1ccccc1
- photoluminescence quantum yield (in Cc1ccccc1): 0.001

SMILES: CN(C)c1ccc2nc3c(cc2c1)c(-c1ccccc1)nn3-c1ccccc1
- photoluminescence quantum yield (in C1CCCCC1): 0.84
- photoluminescence quantum yield (in C1CCOC1): 0.62
- photoluminescence quantum yield (in CC#N): 0.57
- photoluminescence quantum yield (in CC(C)=O): 0.58
- photoluminescence quantum yield (in CCCCCl): 0.64
- photoluminescence quantum yield (in CCCCOCCCC): 0.77
- photoluminescence quantum yield (in CN(C)C=O): 0.46

SMILES: CC1(C)c2ccccc2N(c2ccc(C(=O)c3cc(C(=O)c4ccc(N5c6ccccc6C(C)(C)c6ccccc65)cc4)cc(C(=O)c4ccc(N5c6ccccc6C(C)(C)c6ccccc65)cc4)c3)cc2)c2ccccc21
- photoluminescence quantum yield (in Cc1ccccc1): 0.189
- photoluminescence quantum yield (in c1ccc2c(c1)c1ccccc1n2-c1ccc(-c2ccc(-n3c4ccccc4c4ccccc43)cc2)cc1): 0.856

SMILES: COCCOCCOCN1C(=O)c2ccc3c(-c4ccccc4)c4c5ccc6c7c(ccc(c(-c8ccccc8)c4c4ccc(c2c34)C1=O)c75)C(=O)N(COCCOCCOC)C6=O
- photoluminescence quantum yield (in ClCCl): 0.05

SMILES: F[B-]1(F)n2c(-c3ccccc3)c3ccc4ccccc4c3c2N=C2c3c(ccc4ccccc34)C(c3ccccc3)=[N+]21
- photoluminescence quantum yield (in ClCCl): 0.14

Results, then the compound that gave them:

- photoluminescence quantum yield (in C1COCCO1): 0.358
- photoluminescence quantum yield (in CN(C)C=O): 0.018
- photoluminescence quantum yield (in CO): 0.006
- photoluminescence quantum yield (in CS(C)=O): 0.004
SMILES: O=C1/C(=C2\Sc3ccc(S(=O)(=O)Nc4ccccc4)cc3C2=O)Sc2ccc(S(=O)(=O)Nc3ccccc3)cc21

- photoluminescence quantum yield (in CO): 0.001
SMILES: COc1ccc(/C=C(\c2ccccc2)c2nc3ccccc3s2)cc1

- photoluminescence quantum yield (in ClCCl): 0.69
SMILES: Brc1ccc(N(c2ccc(/C=C/c3ccncn3)cc2)c2ccc(/C=C/c3ccncn3)cc2)cc1

- photoluminescence quantum yield (in CC#N): 0.009
- photoluminescence quantum yield (in CO): 0.01
- photoluminescence quantum yield (in O): 0.012
SMILES: CNCCCN1c2ccccc2CCc2ccccc21

- photoluminescence quantum yield (in CCCCC(CC)n1c2ccc(-n3c4ccccc4c4ccccc43)cc2c2cc(-n3c4ccccc4c4ccccc43)ccc21): 0.239
- photoluminescence quantum yield (in c1cc(-n2c3ccccc3c3ccccc32)cc(-n2c3ccccc3c3ccccc32)c1): 0.365
SMILES: CC1(C)c2ccccc2N(c2cccc(S(=O)(=O)c3cccc(N4c5ccccc5C(C)(C)c5ccccc54)c3)c2)c2ccccc21

- photoluminescence quantum yield (in C1COCCO1): 0.258
SMILES: COC(=O)c1ccc(/C=C2\N=C(c3ccc([N+](=O)[O-])cc3)NC2=O)cc1

- photoluminescence quantum yield (in CC#N): 0.006
- photoluminescence quantum yield (in O): 0.0033
SMILES: Nc1n[n+]([O-])c2ccccc2[n+]1[O-]

- photoluminescence quantum yield (in ClCCl): 0.33
SMILES: CCCCCCCCOc1ccc(C#Cc2ccc3c(c2)c2ccccc2n3CCCCCCCC)c(OCCCCCCCC)c1

- photoluminescence quantum yield (in C1CCCCC1): 0.04
- photoluminescence quantum yield (in CO): 0.007
SMILES: C(=C\c1nc2ccccc2s1)/c1ccccc1

- photoluminescence quantum yield (in ClCCl): 0.12
SMILES: COc1ccc(-c2cc3c(ccc4sc5ccc6sccc6c5c43)s2)cc1

- photoluminescence quantum yield (in ClCCl): 0.78
SMILES: N#Cc1ccc(-n2c(-c3ccc(-c4ccc(-n5c6ccccc6c6ccccc65)cc4)s3)nc3c4ccccc4c4ccccc4c32)c2ccccc12

- photoluminescence quantum yield (in CS(C)=O): 0.53
SMILES: N#Cc1c(/C=C/c2ccc(N(c3ccccc3)c3ccccc3)cc2)cc(-c2cccs2)cc1N1CCCCC1

- photoluminescence quantum yield (in CS(C)=O): 0.76
SMILES: COc1cc2sc3nc(-c4ccccc4OC)sc3c2cc1OC

- photoluminescence quantum yield (in C1CCCCC1): 0.02
- photoluminescence quantum yield (in C1COCCO1): 0.031
- photoluminescence quantum yield (in CC#N): 0.025
- photoluminescence quantum yield (in CN(C)C=O): 0.064
- photoluminescence quantum yield (in CO): 0.02
- photoluminescence quantum yield (in O): 0.011
- photoluminescence quantum yield (in OCC(O)CO): 0.632
- photoluminescence quantum yield (in OCCO): 0.115
SMILES: O=C1NC(=O)/C(=C\c2ccccc2O)S1

- photoluminescence quantum yield (in CCO): 0.32
SMILES: CCN(CC)c1ccc(C=Cc2nc3nc4ccccc4nc3s2)c(OC)c1

- photoluminescence quantum yield (in ClC(Cl)Cl): 0.05
SMILES: CCCCCCN(c1ccccc1)c1ccc(/C=C/c2cc(=O)oc3cc(C)ccc23)cc1

- photoluminescence quantum yield (in CCO): 0.54
SMILES: O=C(O)CCNc1cccc2ccccc12

- photoluminescence quantum yield (in CC#N): 0.85
- photoluminescence quantum yield (in CCO): 0.86
- photoluminescence quantum yield (in O): 0.79
SMILES: CC1=CC2=Nc3nc(C)[n+](C)cc3CN2C=C1

- photoluminescence quantum yield (in ClC(Cl)Cl): 0.84
SMILES: c1ccc(-c2c3c(nc4ccccc24)-c2cc4c(cc2CC3)-c2nc3ccccc3c(-c3ccccc3)c2CC4)cc1

- photoluminescence quantum yield (in C1CCOC1): 0.216
SMILES: O=c1oc2cccc3c4cccc5ccc6c7cc(F)ccc7c1c(c23)c6c54

- photoluminescence quantum yield (in CC#N): 0.031
- photoluminescence quantum yield (in CO): 0.027
SMILES: CN1c2ccccc2CCc2ccccc21

- photoluminescence quantum yield (in C1CCOC1): 0.0013
SMILES: CCCCCCOc1cc(C=C2c3ccccc3-c3ccccc32)c(OCCCCCC)cc1C=C1c2ccccc2C=Cc2ccccc21

- photoluminescence quantum yield (in C1CCOC1): 0.0075
- photoluminescence quantum yield (in CC#N): 0.018
- photoluminescence quantum yield (in CCO): 0.023
- photoluminescence quantum yield (in CN(C)C=O): 0.0037
- photoluminescence quantum yield (in CO): 0.029
- photoluminescence quantum yield (in CS(C)=O): 0.0054
SMILES: CCOC(=O)c1sc(SC)c2c(=O)[nH]nnc12

- photoluminescence quantum yield (in ClCCl): 0.47
SMILES: CCCCCCc1cc2c3c(c1)c(=C1c4ccccc4S(=O)(=O)c4ccccc41)c1cc(CCCCCC)cc4c1N3c1c(cc(CCCCCC)cc1c4=C1c3ccccc3S(=O)(=O)c3ccccc31)c2=C1c2ccccc2S(=O)(=O)c2ccccc21

- photoluminescence quantum yield (in CCCCCC): 0.0014
- photoluminescence quantum yield (in CCO): 0.0012
- photoluminescence quantum yield (in CO): 0.001
- photoluminescence quantum yield (in ClCCl): 0.0014
- photoluminescence quantum yield (in c1ccccc1): 0.0015
SMILES: C(=C\c1cnc2ccccc2n1)/c1cnccn1

- photoluminescence quantum yield (in ClCCl): 0.77
SMILES: Cc1cc(-c2nc3c4ccccc4c4ccccc4c3n2-c2ccc(C(C)(C)C)cc2)ccc1-c1ccc(-c2c(-c3ccccc3)nc3ccccn23)cc1

- photoluminescence quantum yield (in O): 0.00013
SMILES: Nc1nc2c([nH]c(=O)n2[C@H]2C[C@H](O)[C@@H](CO)O2)c(=O)[nH]1

- photoluminescence quantum yield (in ClCCl): 0.028
SMILES: O=c1cc(-c2ccccc2)oc(-c2ccc(-c3nc4ccccn4c3NC3CCCCC3)cc2)c1

- photoluminescence quantum yield (in C1CCCCC1): 0.95
SMILES: c1cc2c3c(c1)OCCCCCCCCOc1cccc(c1-c1c4ccccc4c-3c3ccccc13)OCCCCCCCCO2
